The values that follow come from PMC8150775, “Repositioning Azelnidipine as a Dual Inhibitor Targeting CD47/SIRPα and TIGIT/PVR Pathways for Cancer Immuno-Therapy” (Biomolecules, 2021).

The Kd is the equilibrium constant for the complex coming apart. Read a high Kd as lower affinity.

For assay [1], the target named is T1, CD47/SIRPα interaction (Homo sapiens, UniProt P78324).
T1 construct: purchased ACRO Biosystem SIA-H5251; host or cells: CHOK1-CD47 cells (lenti-viral transfection)
As to the kind of experiment: Blocking assay by flow cytometry, preliminary screening at a single concentration, CD47/SIRPα. To be noted: preliminary test, single concentration of 100 μM. The format is binding. The method, then:
(§1) The abilities of small molecule inhibitors (SMIs) (purchased from TargetMol, Shanghai, China) to block the binding of SIRPα protein to CHOK1-CD47 cells or PVR protein to CHOK1-TIGIT cells were determined by flow cytometry, as previously reported. The SMIs at indicated concentrations were incubated with Fc-tagged SIRPα or PVR protein for 30 min at 4°C, followed by incubating with the indicated cells for another 30 min. Human SIRPα protein (SIA-H5251, ACRO Biosystem, Beijing, China), mouse SIRPα protein (SIA-M5258, ACRO Biosystem, Beijing, China), human PVR protein (CD5-H82F6, ACRO Biosystem, Beijing, China), and mouse PVR protein (50259-M03H, Sino Biological, Beijing, China) were used. PE-conjugated anti-human IgG antibody was used to detect the Fc protein bind to cells. Cells incubated with the Fc proteins and anti-human IgG antibody without the SMIs serve as the positive control. The mean fluorescent intensity (MFI) of each sample was detected and recorded by a flow cytometry. The blocking efficacy of the SMIs was calculated as the equation: (MFI of the positive control-MFI of the SMI)/MFI of the positive control × 100%.
The small molecule inhibitor could not only bind to the target; most importantly, it should interfere with the receptor–ligand interactions. Subsequently, the candidate inhibitors were screened by the blocking assays with the established CD47 and TIGIT over-expressing cell lines. The test was initialed with a preliminary screening of the candidates with a single concentration (Figure 2D). Generally, the SMI blocking efficacy to the CD47/SIRPα interaction was much higher than that of the TIGIT/PVR. […] Therefore, the SMI-F11 and SMI-F17 may exert dual blocking effects in the CD47/SIRPα and TIGIT/PVR pathways. Blocking assays with a concentration gradient of the SMI were further performed to validate the preliminary screening. […] The similar blocking assays with the mouse CD47 and TIGIT over-expressing cells were also performed. […] Considering that most pairs of the immune checkpoints interact with the corresponding ligand in parallel forms, the blocking assays with the PD-1/PD-L1 interaction system was also conducted to test the specificity.

Assay [2] concerns the target T2, human TIGIT/PVR (Homo sapiens, UniProt P15151).
T2 construct: purchased ACRO Biosystem CD5-H82F6; host or cells: soluble protein purchased; TIGIT on CHOK1-hTIGIT cells (lenti-viral transfection)
As to the kind of experiment: Blocking assay, human PVR protein binding to CHOK1-hTIGIT cells. To be noted: concentration gradient; read-out: IC50, blocking human TIGIT/PVR (hPVR binding). As to the method: as §1

Assay [3] deals with T3, mouse TIGIT/PVR (Mus musculus, UniProt F6V4I7).
T3 construct: purchased Sino Biological 50259-M03H; host or cells: soluble protein purchased; TIGIT on CHOK1-mTIGIT cells (lenti-viral transfection)
Description: Blocking assay, mouse PVR protein binding to CHOK1-mTIGIT cells. To be noted: concentration gradient; read-out: IC50, blocking mouse TIGIT/PVR (mPVR binding). The method, then:
as §1, with “(SIA-[…],” for “(SIA-H5251,”, “(SIA-[…],” for “(SIA-M5258,”, “(CD5-[…],” for “(CD5-H82F6,”, “(50259-[…],” for “(50259-M03H,”

Assay [4] addresses T4, human PVR (Homo sapiens, UniProt P15151).
T4 construct: His; purchased ACRO Biosystem CD5-H5223
As to the kind of experiment: Microscale thermophoresis (MST) binding. The method, then: (§2) MST assays were performed to test the affinity of SMI-F11 (azelnidipine) to the indicated protein using the Monolith NT.115 system, as previously reported. His tagged human SIRPα (SIA-H5225, ACRO Biosystem, Beijing, China), mouse SIRPα (50956-M08H, Sino Biological, Beijing, China), human PVR (CD5-H5223, ACRO Biosystem, Beijing, China), and mouse PVR (50259-M08H, Sino Biological, Beijing, China) were used. The protein was labeled with Red-NHS647 dye (NanoTemper Technologies GmhH, Munich, Germany) according to the manufacturer’s instructions. Azelnidipine was 2-fold serially diluted from 200 μM and subsequently tested. Red-NHS647 dye-labeled protein was incubated with the diluted azelnidipine, with equal volume for 5 min at room temperature; the mixture was then loaded onto standard capillaries for detection. The KD values were calculated by the analysis software (MO. Affinity Analysis, version number 2.2.4, NanoTemper Technologies GmhH, Munich, Germany).

Assay [5] has as its target T5, human SIRPα (Homo sapiens, UniProt P78324).
T5 construct: His; purchased ACRO Biosystem SIA-H5225
As to the kind of experiment: Microscale thermophoresis (MST) binding. The method, then:
as §2
On the technique in general: In MST a laser heats a spot of the sample, and binding alters the fluorescence response.

Assay [6] addresses mouse PVR (Mus musculus, UniProt F6V4I7). Description: Microscale thermophoresis (MST) binding. As to the method:
as §2

The target in assay [7] is T6, mouse SIRPα (Mus musculus, UniProt P97797).
T6 construct: His; purchased Sino Biological 50956-M08H
Description: Microscale thermophoresis (MST) binding. As to the method: as §2

Assay [8] relates to IL-12 p40. On the set-up: method as in PMID 19438591. To be noted: cited from earlier work.

Molecules are shown by their SMILES.

T6 sequence (P97797 32-513): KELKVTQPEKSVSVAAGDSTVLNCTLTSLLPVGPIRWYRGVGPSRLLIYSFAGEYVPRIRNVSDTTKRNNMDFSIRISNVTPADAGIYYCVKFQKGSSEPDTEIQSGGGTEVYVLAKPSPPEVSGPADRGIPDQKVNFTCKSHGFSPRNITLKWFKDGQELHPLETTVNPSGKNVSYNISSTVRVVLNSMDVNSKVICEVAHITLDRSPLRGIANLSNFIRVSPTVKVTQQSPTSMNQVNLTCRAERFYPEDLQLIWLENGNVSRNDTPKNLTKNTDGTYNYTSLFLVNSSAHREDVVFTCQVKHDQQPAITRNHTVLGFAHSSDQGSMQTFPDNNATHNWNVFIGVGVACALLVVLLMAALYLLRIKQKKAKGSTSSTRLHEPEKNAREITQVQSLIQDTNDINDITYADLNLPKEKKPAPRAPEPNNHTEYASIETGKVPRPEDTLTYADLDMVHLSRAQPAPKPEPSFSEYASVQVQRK
T2 sequence (P15151 21-343 limits assumed): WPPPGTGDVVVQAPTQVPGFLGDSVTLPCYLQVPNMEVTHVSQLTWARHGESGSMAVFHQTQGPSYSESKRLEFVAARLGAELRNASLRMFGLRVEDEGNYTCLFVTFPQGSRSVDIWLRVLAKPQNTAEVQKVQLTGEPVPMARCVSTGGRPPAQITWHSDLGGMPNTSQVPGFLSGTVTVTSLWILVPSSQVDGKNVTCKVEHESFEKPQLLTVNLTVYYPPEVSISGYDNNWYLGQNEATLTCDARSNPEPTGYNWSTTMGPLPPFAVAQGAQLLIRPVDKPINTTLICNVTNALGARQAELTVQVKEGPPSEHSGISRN
Chain of mouse PVR (F6V4I7 29-347): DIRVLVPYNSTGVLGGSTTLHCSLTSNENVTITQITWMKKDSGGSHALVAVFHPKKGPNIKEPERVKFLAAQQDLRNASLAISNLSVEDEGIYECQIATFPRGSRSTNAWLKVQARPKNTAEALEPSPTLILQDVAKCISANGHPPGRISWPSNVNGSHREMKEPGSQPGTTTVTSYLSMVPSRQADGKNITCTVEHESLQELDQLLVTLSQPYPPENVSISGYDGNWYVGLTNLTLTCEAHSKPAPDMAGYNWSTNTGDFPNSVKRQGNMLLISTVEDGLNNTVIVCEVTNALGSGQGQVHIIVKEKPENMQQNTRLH
T4 sequence (P15151 21-417): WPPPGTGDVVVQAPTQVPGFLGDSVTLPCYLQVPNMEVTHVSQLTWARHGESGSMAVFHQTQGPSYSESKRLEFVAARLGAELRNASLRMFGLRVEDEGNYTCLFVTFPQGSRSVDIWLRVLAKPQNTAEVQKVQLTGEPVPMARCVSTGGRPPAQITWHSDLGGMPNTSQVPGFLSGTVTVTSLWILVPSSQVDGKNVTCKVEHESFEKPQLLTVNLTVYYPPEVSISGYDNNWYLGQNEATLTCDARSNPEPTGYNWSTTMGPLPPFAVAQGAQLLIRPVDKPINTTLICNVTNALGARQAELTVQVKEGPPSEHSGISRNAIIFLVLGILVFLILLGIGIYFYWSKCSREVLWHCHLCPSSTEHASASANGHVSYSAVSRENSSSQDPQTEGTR
T5 sequence (P78324 31-504): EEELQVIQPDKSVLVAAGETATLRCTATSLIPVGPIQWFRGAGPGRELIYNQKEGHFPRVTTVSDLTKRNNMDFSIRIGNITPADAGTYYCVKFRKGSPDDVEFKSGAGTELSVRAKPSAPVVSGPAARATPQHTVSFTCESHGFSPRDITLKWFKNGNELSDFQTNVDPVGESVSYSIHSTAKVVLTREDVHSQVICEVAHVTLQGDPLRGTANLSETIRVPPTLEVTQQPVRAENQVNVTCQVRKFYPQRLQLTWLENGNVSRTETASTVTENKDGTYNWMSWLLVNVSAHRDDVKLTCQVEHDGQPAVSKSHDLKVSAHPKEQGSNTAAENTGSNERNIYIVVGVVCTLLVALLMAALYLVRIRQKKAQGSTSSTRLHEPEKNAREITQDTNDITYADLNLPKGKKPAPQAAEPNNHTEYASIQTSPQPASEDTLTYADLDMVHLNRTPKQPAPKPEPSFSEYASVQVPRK
T3 sequence (F6V4I7 29-408): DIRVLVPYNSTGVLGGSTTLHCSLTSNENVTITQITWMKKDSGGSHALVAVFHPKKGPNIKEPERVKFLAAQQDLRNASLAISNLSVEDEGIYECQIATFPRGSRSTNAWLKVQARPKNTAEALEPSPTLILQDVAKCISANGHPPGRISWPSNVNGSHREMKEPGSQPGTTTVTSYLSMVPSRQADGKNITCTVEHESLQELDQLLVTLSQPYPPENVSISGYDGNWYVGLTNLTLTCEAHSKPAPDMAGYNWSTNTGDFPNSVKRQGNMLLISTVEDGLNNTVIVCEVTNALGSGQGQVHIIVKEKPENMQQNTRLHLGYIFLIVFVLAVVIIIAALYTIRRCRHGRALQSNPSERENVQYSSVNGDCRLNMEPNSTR
T1 sequence (P78324 31-370 limits assumed): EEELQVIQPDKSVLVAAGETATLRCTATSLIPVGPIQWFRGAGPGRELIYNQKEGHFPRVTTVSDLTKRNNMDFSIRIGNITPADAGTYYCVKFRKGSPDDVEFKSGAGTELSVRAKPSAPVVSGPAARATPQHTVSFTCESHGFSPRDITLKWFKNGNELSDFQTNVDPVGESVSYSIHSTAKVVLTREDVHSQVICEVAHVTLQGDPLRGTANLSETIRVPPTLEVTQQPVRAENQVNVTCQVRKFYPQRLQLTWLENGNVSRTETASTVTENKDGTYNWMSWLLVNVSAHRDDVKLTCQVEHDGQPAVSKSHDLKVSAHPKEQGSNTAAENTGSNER

Turning to `CC1=C(C(=O)OC(C)C)C(c2cccc([N+](=O)[O-])c2)C(C(=O)OC2CN(C(c3ccccc3)c3ccccc3)C2)=C(N)N1` (centres unmarked) [Azelnidipine], the “blocking efficacy, CD47/SIRPα interaction” value in assay [1] is on record as “more than 50%”. Moreover, the IC50 in assay [2] was about 28 µM; in assay [3], about 82 µM. Further, the Kd in assay [4] was 6.48 µM; in assay [5] it was 5.37 µM; in assay [6], 13.3 µM; in assay [7] it was 3.75 µM. Moreover, in assay [8], the “secretion of IL-12 p40 mediated by immune complex” value is listed as “enhance the secretion of IL-12 p40”.
